# Assay results taken from patent US7462642B2, “Anti-cancer combinations” (Cancer Research Technology Limited, priority 2003, dated 2008).
# “Also recorded” adds a separate entry of the source. Read-outs that look alike come from different tables or passages of the source.
# Experiments:
# [1] = tested on: colon 38 tumours; assay: Tumour growth delay assay; assay type: in vivo, C57B1/6 mice
# Method: C57B1/6 mice from the Animal Resource Unit, University of Auckland, were bred and housed under conditions of constant temperature and humidity, with sterile bedding and food, according to institutional ethical guidelines. All mice were aged between 8 and 12 weeks.
# (§1) DMXAA was synthesized as the sodium salt (Rewcastle et al (1990) Journal of National Cancer Institute 82:528-529). DMXAA sodium salt was dissolved in sterile water and 25 mg/kg in a volume of 0.1 ml per 10 g body weight was injected intraperitoneally (i.p.) into mice.
# Diclofenac (Sigma) was dissolved in dimethylsulphoxide, and was injected i.p. into mice in a volume of 25 μl per 10 g body weight. […]
# Colon 38 tumour fragments (˜1 mm^3) were implanted subcutaneously (s.c.) in the left flank of anaesthetized (sodium pentobarbital, 81 mg/kg) mice. […] Tumour-bearing mice were treated with drugs according to the administration schedule described before, and the tumours measured using calipers, three times weekly thereafter. Tumour volumes were calculated as 0.52a^2b, where a and b are the minor and major axes of the tumour, respectively. The arithmetic means were calculated for each time point, counting cured tumours as zero volume. The growth delay was determined as the difference in the number of days required for the control versus treated tumours to increase four times in volume. […]
# [2] = DMXAA plasma pharmacokinetic studies (HPLC assay); assay type: in vivo, mice
# Method: as §1
# Diclofenac (Sigma) was dissolved in dimethylsulphoxide, and was injected i.p. into mice in a volume of 25 μl per 10 g body weight. The required dose of diclofenac was injected concurrently with DMXAA.
# [3] = tested on: tumours or human tumour xenografts; conditions: preclinical studies; cited from earlier work
# [4] = tested on: human tumours; conditions: Phase I clinical trials; well-tolerated doses; cited from earlier work
# [5] = cited from earlier work
# [6] = tested on: glucoronidation of DMXAA; conditions: diclofenac 100 μM; mouse and human microsomes; cited from earlier work
# [7] = tested on: 6-methylhydroxylation of DMXAA; conditions: diclofenac 100 μM; mouse and human microsomes; cited from earlier work
"AUC ([2]; mouse, plasma, ip, 0-6 hours, DMXAA 25 mg/kg i.p. alone or with diclofenac 5 mg/kg) [µM·h]","half-life ([2]; mouse, plasma, ip, DMXAA 25 mg/kg i.p. alone or with diclofenac 5 mg/kg) [h]","effect on DMXAA plasma concentrations ([2]; 3 hours after administration, DMXAA 25 mg/kg with diclofenac doses below 100 mg/kg)",Compound,"mice cured ([1]; s.c. colon 38 tumours, DMXAA 25 mg/kg alone or with diclofenac 5 mg/kg i.p., 5 mice per group)",tumour blood flow [3],tumour blood flow (dynamic MRI) [4],"increase in the plasma DMXAA AUC ([5]; diclofenac 100 mg/kg i.p., female mice) [%]","increase in DMXAA T1/2 ([5]; diclofenac 100 mg/kg i.p., male and female mice, P<0.05)","increase in the plasma DMXAA AUC ([5]; diclofenac 100 mg/kg i.p., male mice) [%]","increase in the plasma concentration and AUC of DMXAA ([5]; diclofenac 100 mg/kg, mice)",effect on the growth of colon 38 tumours ([1]; diclofenac alone 5 mg/kg i.p.),inhibition of glucoronidation of DMXAA [6] [%],inhibition of 6-methylhydroxylation of DMXAA [7] [%]
1330,2.7,–,"Cc1ccc2c(=O)c3cccc(CC(=O)O)c3oc2c1C [DMXAA, 5,6-dimethylxanthenone-4-acetic acid]",none of the mice were cured; also recorded: no cure,prolonged inhibition of tumour blood flow,significant reduction in tumour blood flow,–,–,–,–,–,–,–
–,–,no significant effect,"O=C(O)Cc1ccccc1Nc1c(Cl)cccc1Cl [diclofenac, 2-[(2,6-dichlorophenyl)amino]benzeneacetic acid]",–,–,–,31,threefold increase,24,24-31%,no significant effect,> 70,> 54
